Source: PubChem BioAssay (NCI)
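The compound was tested at five concentrations on cells cultured in 96-well plates, with a 48-hour exposure period. GI50: concentration for 50% inhibition of growth. TGI marks complete inhibition of growth.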

Key:
Assay in all cases: DTP human tumour cell line panel, 48 h
786-0 renal = tested on: 786-0 renal
A498 renal = tested on: A498 renal
A549 NSCLC = tested on: A549 NSCLC
ACHN renal = tested on: ACHN renal
BT-549 breast = tested on: BT-549 breast
CAKI-1 renal = tested on: CAKI-1 renal
CCRF-CEM leukemia = tested on: CCRF-CEM leukemia
COLO 205 colon = tested on: COLO 205 colon
DU-145 prostate = tested on: DU-145 prostate
EKVX NSCLC = tested on: EKVX NSCLC
HCC-2998 colon = tested on: HCC-2998 colon
HCT-116 colon = tested on: HCT-116 colon
HCT-15 colon = tested on: HCT-15 colon
HL-60(TB) leukemia = tested on: HL-60(TB) leukemia
HOP-62 NSCLC = tested on: HOP-62 NSCLC
HOP-92 NSCLC = tested on: HOP-92 NSCLC
HS 578T breast = tested on: HS 578T breast
HT29 colon = tested on: HT29 colon
IGROV1 ovarian = tested on: IGROV1 ovarian
K-562 leukemia = tested on: K-562 leukemia
KM12 colon = tested on: KM12 colon
LOX IMVI melanoma = tested on: LOX IMVI melanoma
M14 melanoma = tested on: M14 melanoma
MALME-3M melanoma = tested on: MALME-3M melanoma
MCF7 breast = tested on: MCF7 breast
MDA-MB-231 breast = tested on: MDA-MB-231 breast
MDA-MB-435 = tested on: MDA-MB-435
MOLT-4 leukemia = tested on: MOLT-4 leukemia
NCI-H226 lung = tested on: NCI-H226 lung
NCI-H23 lung = tested on: NCI-H23 lung
NCI-H460 lung = tested on: NCI-H460 lung
NCI-H522 lung = tested on: NCI-H522 lung
NCI/ADR-RES ovarian = tested on: NCI/ADR-RES ovarian
OVCAR-3 ovarian = tested on: OVCAR-3 ovarian
OVCAR-4 ovarian = tested on: OVCAR-4 ovarian
OVCAR-5 ovarian = tested on: OVCAR-5 ovarian
OVCAR-8 ovarian = tested on: OVCAR-8 ovarian
PC-3 prostate = tested on: PC-3 prostate
RPMI-8226 leukemia = tested on: RPMI-8226 leukemia
RXF 393 renal = tested on: RXF 393 renal
SF-268 CNS = tested on: SF-268 CNS
SF-295 CNS = tested on: SF-295 CNS
SF-539 CNS = tested on: SF-539 CNS
SK-MEL-2 melanoma = tested on: SK-MEL-2 melanoma
SK-MEL-28 melanoma = tested on: SK-MEL-28 melanoma
SK-MEL-5 melanoma = tested on: SK-MEL-5 melanoma
SK-OV-3 ovarian = tested on: SK-OV-3 ovarian
SN12C renal = tested on: SN12C renal
SNB-19 CNS = tested on: SNB-19 CNS
SNB-75 CNS = tested on: SNB-75 CNS
SR leukemia = tested on: SR leukemia
SW-620 colon = tested on: SW-620 colon
T-47D breast = tested on: T-47D breast
TK-10 renal = tested on: TK-10 renal
U251 CNS = tested on: U251 CNS
UACC-257 melanoma = tested on: UACC-257 melanoma
UACC-62 melanoma = tested on: UACC-62 melanoma
UO-31 renal = tested on: UO-31 renal

## CCN(CC)c1ccc(/C=N/NC(=O)c2ccc(NS(C)(=O)=O)cc2)c(O)c1
786-0 renal
  GI50: 425 nM
  TGI: 4200 nM
A498 renal
  GI50: 2950 nM
  TGI: 25100 nM
A549 NSCLC
  GI50: 1980 nM
  TGI: > 48500 nM
ACHN renal
  GI50: 497 nM
  TGI: 20600 nM
BT-549 breast
  GI50: 658 nM
  TGI: 8610 nM
CAKI-1 renal
  GI50: 434 nM
  TGI: 17700 nM
CCRF-CEM leukemia
  GI50: 169 nM
  TGI: > 100000 nM
COLO 205 colon
  GI50: 356 nM
  TGI: 13500 nM
DU-145 prostate
  GI50: 751 nM
  TGI: 23300 nM
EKVX NSCLC
  GI50: 574 nM
  TGI: > 63100 nM
HCC-2998 colon
  GI50: 572 nM
  TGI: 19200 nM
HCT-116 colon
  GI50: 330 nM
  TGI: 19500 nM
HCT-15 colon
  GI50: 386 nM
  TGI: > 68800 nM
HL-60(TB) leukemia
  GI50: 242 nM
HOP-62 NSCLC
  GI50: 267 nM
  TGI: 6940 nM
HOP-92 NSCLC
  GI50: 386 nM
  TGI: 20500 nM
HS 578T breast
  GI50: 1950 nM
  TGI: 18300 nM
HT29 colon
  GI50: 475 nM
  TGI: 16700 nM
IGROV1 ovarian
  GI50: 540 nM
  TGI: > 70300 nM
K-562 leukemia
  GI50: 443 nM
  TGI: > 100000 nM
KM12 colon
  GI50: 536 nM
  TGI: 19600 nM
LOX IMVI melanoma
  GI50: 219 nM
  TGI: 5300 nM
M14 melanoma
  GI50: 351 nM
  TGI: 3630 nM
MALME-3M melanoma
  GI50: 788 nM
  TGI: 11700 nM
MCF7 breast
  GI50: 409 nM
  TGI: 24500 nM
MDA-MB-231 breast
  GI50: 432 nM
  TGI: 34900 nM
MDA-MB-435
  GI50: 734 nM
  TGI: 97200 nM
MOLT-4 leukemia
  GI50: 331 nM
  TGI: 25600 nM
NCI-H226 lung
  GI50: 1010 nM
  TGI: 31800 nM
NCI-H23 lung
  GI50: 1160 nM
  TGI: 30600 nM
NCI-H460 lung
  GI50: 455 nM
  TGI: 10200 nM
NCI-H522 lung
  GI50: 334 nM
  TGI: 10400 nM
NCI/ADR-RES ovarian
  GI50: 3180 nM
  TGI: 98300 nM
OVCAR-3 ovarian
  GI50: 185 nM
  TGI: 26300 nM
OVCAR-4 ovarian
  GI50: 355 nM
  TGI: 42400 nM
OVCAR-5 ovarian
  GI50: 2470 nM
  TGI: > 100000 nM
OVCAR-8 ovarian
  GI50: 355 nM
  TGI: > 34000 nM
PC-3 prostate
  GI50: 369 nM
  TGI: > 54000 nM
RPMI-8226 leukemia
  GI50: 2790 nM
  TGI: 16200 nM
RXF 393 renal
  GI50: 788 nM
  TGI: 3230 nM
SF-268 CNS
  GI50: 243 nM
  TGI: 17300 nM
SF-295 CNS
  GI50: 551 nM
  TGI: 14800 nM
SF-539 CNS
  GI50: 426 nM
  TGI: 7070 nM
SK-MEL-2 melanoma
  GI50: 2010 nM
  TGI: 16900 nM
SK-MEL-28 melanoma
  GI50: 444 nM
  TGI: > 50900 nM
SK-MEL-5 melanoma
  GI50: 853 nM
  TGI: 21300 nM
SK-OV-3 ovarian
  GI50: 508 nM
  TGI: 20100 nM
SN12C renal
  GI50: 768 nM
  TGI: 62600 nM
SNB-19 CNS
  GI50: 830 nM
  TGI: 30700 nM
SNB-75 CNS
  GI50: 309 nM
  TGI: 5650 nM
SR leukemia
  GI50: 95.4 nM
SW-620 colon
  GI50: 468 nM
  TGI: > 100000 nM
T-47D breast
  GI50: 2050 nM
  TGI: > 55300 nM
TK-10 renal
  GI50: 833 nM
  TGI: 39900 nM
U251 CNS
  GI50: 239 nM
  TGI: > 37200 nM
UACC-257 melanoma
  GI50: 568 nM
  TGI: 18400 nM
UACC-62 melanoma
  GI50: 381 nM
  TGI: 7100 nM
UO-31 renal
  GI50: 397 nM
  TGI: 20500 nM
